The source made the active and inactive calls. No cut-off for these calls is given here.
Assays:
[1] = biological target: Fibroblast growth factor receptor 3 (Homo sapiens, UniProt P22607); experiment: Binding affinity to FGFR3 (unknown origin)
[2] = biological target: T1, Mast/stem cell growth factor receptor Kit (Homo sapiens, UniProt P10721); experiment: Binding affinity to c-KIT (unknown origin)
[3] = biological target: Tyrosine-protein kinase Fyn (Homo sapiens, UniProt P06241); conditions: 1 uM
Description: Inhibition of FYN (unknown origin) at 1 uM relative to control

[4] = biological target: Tyrosine-protein kinase receptor UFO (Homo sapiens) (UniProt P30530); conditions: 1 uM
Description: Inhibition of AXL (unknown origin) at 1 uM relative to control

[5] = biological target: Platelet-derived growth factor receptor beta (Homo sapiens, UniProt P09619); experiment: Binding affinity to PDGFR-beta (unknown origin)
Focal adhesion kinase 1 [6] = biological target: T2, Focal adhesion kinase 1 (Homo sapiens, UniProt Q05397); experiment: Inhibition of FAK (unknown origin) at 1 uM relative to control
Focal adhesion kinase 1 [7] = biological target: T2, Focal adhesion kinase 1; experiment: Binding affinity to FAK (unknown origin)
Target sequence in this assay (Q05397 whole entry): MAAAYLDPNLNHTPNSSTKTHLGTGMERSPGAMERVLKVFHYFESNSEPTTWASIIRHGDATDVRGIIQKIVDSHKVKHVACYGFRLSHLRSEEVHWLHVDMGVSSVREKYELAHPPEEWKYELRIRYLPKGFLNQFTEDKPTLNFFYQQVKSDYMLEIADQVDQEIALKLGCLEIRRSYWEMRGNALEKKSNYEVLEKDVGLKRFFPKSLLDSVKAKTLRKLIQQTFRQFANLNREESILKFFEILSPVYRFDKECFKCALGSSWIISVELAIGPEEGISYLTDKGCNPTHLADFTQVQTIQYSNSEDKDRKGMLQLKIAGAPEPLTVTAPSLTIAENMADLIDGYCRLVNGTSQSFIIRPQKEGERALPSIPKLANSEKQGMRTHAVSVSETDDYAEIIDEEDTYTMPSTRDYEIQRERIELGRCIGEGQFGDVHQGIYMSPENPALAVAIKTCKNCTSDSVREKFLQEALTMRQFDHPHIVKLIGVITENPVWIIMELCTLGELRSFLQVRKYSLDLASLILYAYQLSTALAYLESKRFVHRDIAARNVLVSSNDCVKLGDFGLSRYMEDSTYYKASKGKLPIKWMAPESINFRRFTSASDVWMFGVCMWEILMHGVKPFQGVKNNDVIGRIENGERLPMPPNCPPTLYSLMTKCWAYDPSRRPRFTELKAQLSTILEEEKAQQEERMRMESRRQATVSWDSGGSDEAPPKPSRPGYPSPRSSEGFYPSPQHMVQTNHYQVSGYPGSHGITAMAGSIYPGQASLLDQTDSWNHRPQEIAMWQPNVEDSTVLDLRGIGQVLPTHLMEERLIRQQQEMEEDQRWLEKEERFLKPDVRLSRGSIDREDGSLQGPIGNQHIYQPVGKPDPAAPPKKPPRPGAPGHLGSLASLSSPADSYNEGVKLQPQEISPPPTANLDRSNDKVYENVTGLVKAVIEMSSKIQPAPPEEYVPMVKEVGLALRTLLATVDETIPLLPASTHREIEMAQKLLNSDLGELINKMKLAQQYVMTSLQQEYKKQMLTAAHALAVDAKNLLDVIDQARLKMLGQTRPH

[8] = biological target: Serine/threonine-protein kinase Chk1 (Homo sapiens) (UniProt O14757); experiment: Inhibition of CHK1 (unknown origin) at 1 uM relative to control
Mus musculus = experiment: Toxicity in BALB/c nude mouse xenografted with human HT-29 cells assessed as severe weight loss at 80 mg/kg/day administered qd; assay type: organism-based; conditions: in vivo
Aorta = experiment: Antiangiogenic activity in Sprague-Dawley rat aortic ring at 0.2 ug/ml after 6 days by inverted microscopic analysis; assay type: functional, tissue-based
[9] = biological target: Voltage-gated inwardly rectifying potassium channel KCNH2 (Homo sapiens, UniProt Q12809); experiment: Inhibition of human ERG
[10] = Antiproliferative activity against human MV411 cells after 48 hrs by MTT assay; assay type: functional, cell-based; conditions: MV4-11, 48 h
NCI-H460 = experiment: Antiproliferative activity against human NCI-H460 cells after 72 hrs by MTT assay; assay type: functional, cell-based; conditions: NCI-H460, 72 h
[11] = biological target: T1, Mast/stem cell growth factor receptor Kit; conditions: 1 uM
Description: Inhibition of c-KIT (unknown origin) at 1 uM relative to control

T1 sequence (P10721 whole entry): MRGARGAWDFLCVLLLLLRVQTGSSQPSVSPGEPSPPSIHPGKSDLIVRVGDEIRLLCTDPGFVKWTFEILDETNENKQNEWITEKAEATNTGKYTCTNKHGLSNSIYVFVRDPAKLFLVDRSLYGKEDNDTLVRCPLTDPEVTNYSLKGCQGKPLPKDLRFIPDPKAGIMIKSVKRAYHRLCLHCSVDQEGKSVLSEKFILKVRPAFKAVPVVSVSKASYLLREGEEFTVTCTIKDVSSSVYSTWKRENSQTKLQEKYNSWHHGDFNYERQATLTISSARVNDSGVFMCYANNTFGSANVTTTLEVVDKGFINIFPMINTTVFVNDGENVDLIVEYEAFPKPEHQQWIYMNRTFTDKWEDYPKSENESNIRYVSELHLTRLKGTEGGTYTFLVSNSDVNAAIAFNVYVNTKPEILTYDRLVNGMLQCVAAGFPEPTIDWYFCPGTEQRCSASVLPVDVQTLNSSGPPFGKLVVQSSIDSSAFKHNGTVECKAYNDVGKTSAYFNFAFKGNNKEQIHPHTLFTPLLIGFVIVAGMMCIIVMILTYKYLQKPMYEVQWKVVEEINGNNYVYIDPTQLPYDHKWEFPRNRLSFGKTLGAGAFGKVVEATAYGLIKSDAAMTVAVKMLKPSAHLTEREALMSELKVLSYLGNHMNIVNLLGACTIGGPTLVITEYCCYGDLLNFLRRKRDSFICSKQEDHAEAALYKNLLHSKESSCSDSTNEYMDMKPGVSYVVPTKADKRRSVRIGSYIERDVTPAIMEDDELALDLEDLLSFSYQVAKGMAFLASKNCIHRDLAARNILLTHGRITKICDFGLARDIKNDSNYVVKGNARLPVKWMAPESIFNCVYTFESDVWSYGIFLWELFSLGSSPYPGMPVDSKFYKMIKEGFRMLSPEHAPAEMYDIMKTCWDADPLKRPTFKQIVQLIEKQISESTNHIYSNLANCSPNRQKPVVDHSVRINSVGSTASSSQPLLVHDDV
Serine/threonine-protein kinase Chk1 (Homo sapiens), sequence (O14757 whole entry): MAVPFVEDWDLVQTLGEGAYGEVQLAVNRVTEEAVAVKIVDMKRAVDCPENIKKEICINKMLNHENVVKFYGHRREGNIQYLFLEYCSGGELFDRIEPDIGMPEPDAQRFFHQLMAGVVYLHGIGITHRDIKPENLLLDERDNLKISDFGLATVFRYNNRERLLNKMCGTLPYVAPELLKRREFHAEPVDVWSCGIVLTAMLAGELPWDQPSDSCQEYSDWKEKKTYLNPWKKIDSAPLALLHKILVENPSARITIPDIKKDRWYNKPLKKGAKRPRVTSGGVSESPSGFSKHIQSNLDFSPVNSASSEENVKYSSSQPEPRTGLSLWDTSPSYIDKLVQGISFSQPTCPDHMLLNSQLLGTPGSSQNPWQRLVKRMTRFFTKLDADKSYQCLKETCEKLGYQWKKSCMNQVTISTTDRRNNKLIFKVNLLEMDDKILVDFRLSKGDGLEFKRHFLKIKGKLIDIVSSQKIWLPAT
Tyrosine-protein kinase receptor UFO (Homo sapiens), sequence (P30530 whole entry): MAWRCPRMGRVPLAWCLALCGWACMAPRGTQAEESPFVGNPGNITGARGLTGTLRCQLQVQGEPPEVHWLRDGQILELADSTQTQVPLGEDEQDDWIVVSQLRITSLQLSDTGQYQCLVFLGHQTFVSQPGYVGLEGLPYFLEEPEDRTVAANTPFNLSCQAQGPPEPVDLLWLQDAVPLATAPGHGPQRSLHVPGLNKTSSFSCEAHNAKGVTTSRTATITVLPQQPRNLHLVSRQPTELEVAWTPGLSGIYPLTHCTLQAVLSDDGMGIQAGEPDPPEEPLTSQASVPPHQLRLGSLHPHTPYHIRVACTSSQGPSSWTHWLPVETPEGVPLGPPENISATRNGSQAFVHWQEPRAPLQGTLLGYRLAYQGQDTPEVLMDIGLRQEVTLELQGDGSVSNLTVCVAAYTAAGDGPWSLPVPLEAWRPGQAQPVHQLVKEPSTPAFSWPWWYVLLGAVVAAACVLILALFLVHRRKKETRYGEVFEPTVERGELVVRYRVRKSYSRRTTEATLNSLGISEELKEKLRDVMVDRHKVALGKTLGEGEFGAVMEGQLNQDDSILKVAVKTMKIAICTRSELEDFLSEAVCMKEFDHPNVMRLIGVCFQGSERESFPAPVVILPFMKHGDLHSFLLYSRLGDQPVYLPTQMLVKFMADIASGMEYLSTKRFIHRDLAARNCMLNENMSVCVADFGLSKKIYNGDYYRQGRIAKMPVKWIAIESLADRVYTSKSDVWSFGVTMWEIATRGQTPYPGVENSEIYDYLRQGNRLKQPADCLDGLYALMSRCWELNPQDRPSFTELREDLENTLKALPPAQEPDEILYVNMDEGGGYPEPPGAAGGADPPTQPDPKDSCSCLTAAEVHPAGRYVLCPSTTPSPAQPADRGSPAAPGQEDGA
Platelet-derived growth factor receptor beta, sequence (P09619 whole entry): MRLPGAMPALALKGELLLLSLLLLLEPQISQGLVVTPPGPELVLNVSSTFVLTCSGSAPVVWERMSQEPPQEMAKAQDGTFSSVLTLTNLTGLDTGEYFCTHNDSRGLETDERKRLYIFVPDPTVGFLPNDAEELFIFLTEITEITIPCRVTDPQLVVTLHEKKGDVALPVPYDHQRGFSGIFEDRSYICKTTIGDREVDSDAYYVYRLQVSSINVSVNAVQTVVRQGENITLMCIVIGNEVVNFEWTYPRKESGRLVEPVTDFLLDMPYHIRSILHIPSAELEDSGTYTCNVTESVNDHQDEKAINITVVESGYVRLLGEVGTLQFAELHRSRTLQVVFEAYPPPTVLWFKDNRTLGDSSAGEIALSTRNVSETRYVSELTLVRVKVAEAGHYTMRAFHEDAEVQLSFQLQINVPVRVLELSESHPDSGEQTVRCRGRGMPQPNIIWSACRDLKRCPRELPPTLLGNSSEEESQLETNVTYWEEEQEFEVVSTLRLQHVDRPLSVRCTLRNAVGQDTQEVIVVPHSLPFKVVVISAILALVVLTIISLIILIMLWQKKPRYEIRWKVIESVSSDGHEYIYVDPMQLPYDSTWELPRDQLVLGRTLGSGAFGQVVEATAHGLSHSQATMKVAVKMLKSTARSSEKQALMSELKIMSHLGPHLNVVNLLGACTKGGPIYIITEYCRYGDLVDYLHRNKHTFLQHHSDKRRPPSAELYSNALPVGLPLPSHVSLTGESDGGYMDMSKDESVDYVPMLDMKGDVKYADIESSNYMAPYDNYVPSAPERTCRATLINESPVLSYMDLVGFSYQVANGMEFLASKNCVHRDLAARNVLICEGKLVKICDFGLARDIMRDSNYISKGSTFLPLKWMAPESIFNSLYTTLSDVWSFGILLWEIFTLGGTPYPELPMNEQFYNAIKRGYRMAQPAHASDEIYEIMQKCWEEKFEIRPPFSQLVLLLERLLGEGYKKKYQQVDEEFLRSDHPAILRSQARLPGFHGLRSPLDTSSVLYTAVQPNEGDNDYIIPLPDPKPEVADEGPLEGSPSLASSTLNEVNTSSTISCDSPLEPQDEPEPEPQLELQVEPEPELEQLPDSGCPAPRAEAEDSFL
Tyrosine-protein kinase Fyn, sequence (P06241 2-537 limits assumed): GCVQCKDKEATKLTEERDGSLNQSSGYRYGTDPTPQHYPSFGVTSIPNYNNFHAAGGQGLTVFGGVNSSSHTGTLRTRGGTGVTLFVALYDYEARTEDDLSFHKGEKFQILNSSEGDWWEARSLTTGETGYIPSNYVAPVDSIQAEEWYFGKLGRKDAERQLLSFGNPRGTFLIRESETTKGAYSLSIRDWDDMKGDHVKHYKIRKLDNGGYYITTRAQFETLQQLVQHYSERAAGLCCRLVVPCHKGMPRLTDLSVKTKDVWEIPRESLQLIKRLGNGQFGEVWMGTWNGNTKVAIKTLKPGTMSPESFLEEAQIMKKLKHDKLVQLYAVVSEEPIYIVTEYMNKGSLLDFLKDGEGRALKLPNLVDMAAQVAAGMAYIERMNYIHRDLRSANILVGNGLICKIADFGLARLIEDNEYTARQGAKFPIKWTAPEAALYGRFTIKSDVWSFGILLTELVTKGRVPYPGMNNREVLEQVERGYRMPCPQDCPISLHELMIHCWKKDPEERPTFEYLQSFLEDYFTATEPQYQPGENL

Ki [1]: 89 nM
Ki [2]: 200 nM
inhibition [3]: 44%
inhibition [4]: 95%
Ki [5]: 19 nM
inhibition (Focal adhesion kinase 1 [6]): 66%
Ki (Focal adhesion kinase 1 [7]): 530 nM
inhibition [8]: 76%
IC50 (NCI-H460): 6110 nM
inhibition [11]: 87%
SMILES: Cc1[nH]c(/C=C2\C(=O)Nc3ccc(F)cc32)c(C)c1NC(=O)CCN1CCN(C)CC1
Activity (Mus musculus): Non-toxic
inhibition (Aorta): Active
IC50 [9]: 18800 nM
IC50 [10]: 8 nM

Source: ChEMBL document CHEMBL3286339, “Synthesis and in vivo SAR study of indolin-2-one-based multi-targeted inhibitors as potential anticancer agents” (Eur J Med Chem, 2014)
